{"source": "paper PMC9146377", "about": "“Design and Synthesis of Novel Bis-Imidazolyl Phenyl Butadiyne Derivatives as HCV NS5A Inhibitors” (Pharmaceuticals, 2022)", "key": {"[1]": {"test_system": "HCV genotype 1b Con-1 subgenomic replicon", "experiment": "Anti-HCV luciferase assay, genotype 1b (Con1) subgenomic replicon in Huh5-2 cells", "assay_type": "cell-based, Hepatitis C virus", "conditions": "mean of three experiments", "method": "(§1) All synthesized compounds were tested against HCV genotype 1b Con-1 subgenomic replicon in the Huh-5-2 stable cell line. Specifically, their activity against viral replication was estimated by measuring firefly luciferase, which is co-expressed by the bicistronic replicon, and their half-maximal effective concentrations (EC50) were determined. In parallel, the half-maximal cytotoxic concentrations (CC50) of the compounds were estimated, and their selective indexes (SI50: CC50/ EC50) were calculated. All novel synthesized compounds were active against HCV 1b with EC50 < 1 µM except for compound 4b (Table 3).\nHuh5-2 [65] and Huh7-JFH1 [66] stable cell lines harbor the subgenomic HCV reporter replicon I389luc-ubi-neo/NS3-3′/Con1/5.1 (genotype 1b; strain Con1) and I389luc-ubi-neo/NS3-3′_dg_JFH1 (genotype 2a, JFH1 strain), respectively (kindly provided by R. Bartenschlager, Heidelberg University, Heidelberg, Germany). Huh7.5-3a and Huh7.5-4a stable cell lines harbor the subgenomic HCV reporter replicon S52-SG (Feo) (AII) (genotype 3a; S52 strain) and ED43-SG (Feo) (VYG) (genotype 4a; ED43 strain), respectively (viral constructs kindly provided by C.M. Rice, Rockefeller University, New York, NY, USA). These replicons carry as a first cistron firefly luciferase (F-Luc) and neomycin phosphotransferase genes under the translational control of the HCV internal ribosome entry site (IRES), followed by HCV NS3 to NS5B proteins under the control of the EMCV IRES.\nThe anti-HCV assay in replicon cells was performed by seeding 1 × 10^4 cells per well in a 96-well plate. After 24 h of incubation at 37 °C (5% CO2) and medium removal, serial dilutions of the test compounds in complete DMEM were added. Cells were lysed after 72 h, and F-Luc activity was measured. The anti-HCV assay for the full-length viral construct H77S.3/GLuc2A was performed after electroporation of Huh7-Lunet cells with viral RNA. Cells were seeded in 96-well plates, the medium was removed 24 h after electroporation, and serial dilutions of the compounds in complete DMEM were added. At 72 h post-treatment, cell supernatants were collected, and G-Luc activity was measured. In addition, the cells were lysed for total protein quantification.\nRelative luminescence units (RLU) were expressed as a percentage of the respective units derived from DMSO-treated cells (control). The half-maximal effective concentration (EC50), defined as the concentration of compound that reduces luciferase signal by 50%, was calculated by dose-response curve analysis using Prism 5.0 software (GraphPad Software Inc., San Diego, CA, USA).\nThe F-Luc activity was measured using the Luciferase Assay System (Promega, Madison, WI, USA), as recommended by the manufacturer. The G-Luc activity was measured using 12 μM coelenterazine (Promega) in assay buffer (50 mM potassium phosphate, pH 7.4, 500 mM NaCl, 1 mM EDTA). Measurements were carried out using a GloMax 20/20 single tube luminometer (Promega) for 10 s. The F-Luc activity was normalized to the total protein amount determined using the Bradford assay reagent (Pierce, Waltham, MA, USA)."}, "[2]": {"experiment": "Cytotoxicity assay (intracellular ATP levels) in Huh5-2 replicon cells", "assay_type": "cell-based", "conditions": "human, Huh5-2 cells, read-out: HCV Replicon 1b CC50", "method": "as §1\n(§2) Intracellular ATP levels were measured to determine the cytotoxicity of the compounds in the treated cells. In 96-well plates, 10^4 cells per well were seeded, incubated with serial dilutions of the compounds or DMSO as a control for 72 h at 37 °C (5% CO2) and lysed for ATP measurement. ATP levels were measured using the ViaLight HS BioAssay kit (Lonza, Basel, Switzerland) in a GloMax 20/20 single-tube luminometer (Promega) for 1 s, according to the manufacturer’s protocol. Values were normalized to total protein amounts and used to determine the compound concentration causing 50% cell death (CC50). Nonlinear regression analysis was performed using Prism 5.0 software (GraphPad Software Inc., San Diego, CA, USA)."}, "[3]": {"experiment": "Cytotoxicity assay (intracellular ATP levels), Table 4 Gt1a", "assay_type": "cell-based", "conditions": "human, Huh7-Lunet cells, HCV 1a (H77) full length", "method": "as §2"}}, "note": "Like-named read-outs stand apart in the source and are kept apart here.", "data": [{"smiles": "COC(=O)N[C@@H](C(=O)N1CCC[C@H]1c1ncc(-c2cccc(C#CC#Cc3cccc(-c4cnc([C@@H]5CCCN5C(=O)[C@H](NC(=O)OC)c5ccccc5)[nH]4)c3)c2)[nH]1)c1ccccc1", "note": "[Compound 10a, Dimethyl ((1R,1′R)-((2S,2′S)-((buta-1,3-diyne-1,4-diylbis(3,1-phenylene))bis(1H-imidazole-5,2-diyl))bis(pyrrolidine-2,1-diyl))bis(2-oxo-1-phenylethane-2,1-diyl))dicarbamate]", "values": [{"measurement": "EC50", "setting": "[1]; Hepatitis C virus, Huh-5-2, 72 h, read-out: HCV Replicon 1b EC50, Huh5-2 cells, Con1 strain, F-Luc, 72 h", "value": 0.1, "unit": "nM"}, {"measurement": "EC50", "setting": "[1]; Huh5-2 cells, Con1 strain, F-Luc, 72 h, read-out: HCV Replicon 1b EC50", "value": 0.1, "unit": "nM"}, {"measurement": "CC50 at 72 h", "setting": "[2]", "value": "> 100000", "unit": "nM"}, {"measurement": "CC50 at 72 h", "setting": "[3]", "value": "> 100000", "unit": "nM"}, {"measurement": "melting point", "value": "126 to 128", "unit": "°C"}]}]}
